Assay results taken from the kinase profiling compilation of Christmann-Franck et al. (2016).
pKd: −log10 of the molar value.

How the values were obtained:
Assay in all cases: KINOMEscan competition binding
[1] = tested on: ABL1 (human), P00519 [M351T]
[2] = molecular target: BMPR2 (human) (UniProt Q13873)
[3] = molecular target: CAMK2A (human) (UniProt Q9UQM7)
[4] = molecular target: CDC2L2 (human) (UniProt Q9UQ88)
[5] = molecular target: CDK19 (human) (UniProt Q9BWU1)
[6] = molecular target: CHEK2 (human) (UniProt O96017)
[7] = molecular target: DDR2 (human) (UniProt Q16832)
[8] = molecular target: DMPK (human) (UniProt Q09013)
[9] = tested on: EGFR (human), P00533 [L858R]
[10] = molecular target: ERBB2 (human) (UniProt P04626)
[11] = molecular target: HIPK2 (human) (UniProt Q9H2X6)
[12] = molecular target: IRAK4 (human) (UniProt Q9NWZ3)
[13] = molecular target: JAK3 JH1 catalytic (human) (UniProt P52333)
[14] = tested on: KIT (human), P10721 [A829P]
[15] = tested on: KIT (human), P10721 [D816V]
[16] = molecular target: LCK (human) (UniProt P06239)
[17] = molecular target: LIMK1 (human) (UniProt P53667)
[18] = tested on: LRRK2 (human), Q5S007 [G2019S]
[19] = molecular target: MAK (human) (UniProt P20794)
[20] = molecular target: MAP3K5 (human) (UniProt Q99683)
[21] = molecular target: MAP4K3 (human) (UniProt Q8IVH8)
[22] = molecular target: MAPK9 (human) (UniProt P45984)
[23] = molecular target: MAST1 (human) (UniProt Q9Y2H9)
[24] = molecular target: MATK (human) (UniProt P42679)
[25] = molecular target: MKNK2 (human) (UniProt Q9HBH9)
[26] = molecular target: MLTK (human) (UniProt Q9NYL2)
[27] = molecular target: MYO3A (human) (UniProt Q8NEV4)
[28] = molecular target: NTRK2 (human) (UniProt Q16620)
[29] = molecular target: PAK2 (human) (UniProt Q13177)
[30] = molecular target: PI4KB (human) (UniProt Q9UBF8)
[31] = molecular target: PIK3C2G (human) (UniProt O75747)
[32] = molecular target: PTK2 (human) (UniProt Q05397)
[33] = molecular target: PTK6 (human) (UniProt Q13882)
[34] = molecular target: ROCK1 (human) (UniProt Q13464)
[35] = molecular target: RPS6KA3 KD1 (human) (UniProt P51812)
[36] = molecular target: SGK110 (human) (UniProt P0C264)
[37] = molecular target: SIK1 (human) (UniProt P57059)
[38] = molecular target: SRC (human) (UniProt P12931)
[39] = molecular target: STK17A (human) (UniProt Q9UEE5)
[40] = molecular target: STK24 (human) (UniProt Q9Y6E0)
[41] = molecular target: TESK1 (human) (UniProt Q15569)
[42] = molecular target: TNNI3K (human) (UniProt Q59H18)
[43] = molecular target: YSK4 (human) (UniProt Q56UN5)
Sequence of YSK4 (human) (Q56UN5 whole entry, looked up): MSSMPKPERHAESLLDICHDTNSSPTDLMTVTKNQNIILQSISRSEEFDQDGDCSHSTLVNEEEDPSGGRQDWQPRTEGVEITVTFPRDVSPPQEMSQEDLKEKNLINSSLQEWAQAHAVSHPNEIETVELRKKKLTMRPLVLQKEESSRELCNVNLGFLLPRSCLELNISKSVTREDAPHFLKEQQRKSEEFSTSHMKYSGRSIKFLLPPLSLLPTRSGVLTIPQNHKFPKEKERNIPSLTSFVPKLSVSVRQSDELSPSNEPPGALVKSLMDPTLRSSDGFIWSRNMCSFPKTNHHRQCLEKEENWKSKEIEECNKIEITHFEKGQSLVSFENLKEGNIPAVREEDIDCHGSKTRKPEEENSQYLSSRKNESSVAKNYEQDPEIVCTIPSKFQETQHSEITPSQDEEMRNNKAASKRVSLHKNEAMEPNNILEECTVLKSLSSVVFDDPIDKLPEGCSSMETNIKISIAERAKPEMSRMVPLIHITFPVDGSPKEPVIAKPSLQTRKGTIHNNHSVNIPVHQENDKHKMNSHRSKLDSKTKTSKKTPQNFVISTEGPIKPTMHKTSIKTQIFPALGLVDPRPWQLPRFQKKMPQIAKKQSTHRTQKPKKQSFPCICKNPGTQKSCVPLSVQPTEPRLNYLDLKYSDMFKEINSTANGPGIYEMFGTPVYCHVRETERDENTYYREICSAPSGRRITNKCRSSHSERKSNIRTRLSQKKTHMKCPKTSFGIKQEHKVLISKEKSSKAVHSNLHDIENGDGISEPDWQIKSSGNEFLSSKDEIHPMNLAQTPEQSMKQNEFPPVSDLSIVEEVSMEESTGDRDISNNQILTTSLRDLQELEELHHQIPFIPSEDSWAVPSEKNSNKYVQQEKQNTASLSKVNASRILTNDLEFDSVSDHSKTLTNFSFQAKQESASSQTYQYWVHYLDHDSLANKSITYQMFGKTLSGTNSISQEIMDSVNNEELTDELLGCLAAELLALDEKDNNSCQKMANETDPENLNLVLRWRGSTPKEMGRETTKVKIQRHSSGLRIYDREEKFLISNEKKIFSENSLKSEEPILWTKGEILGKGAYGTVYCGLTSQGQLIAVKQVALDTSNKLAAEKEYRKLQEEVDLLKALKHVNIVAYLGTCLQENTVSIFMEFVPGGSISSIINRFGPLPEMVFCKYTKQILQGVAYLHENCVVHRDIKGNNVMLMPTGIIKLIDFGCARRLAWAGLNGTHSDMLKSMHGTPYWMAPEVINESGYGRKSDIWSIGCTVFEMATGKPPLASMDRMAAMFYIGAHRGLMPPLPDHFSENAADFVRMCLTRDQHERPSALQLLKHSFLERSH

Sequence of MAPK9 (human) (P45984 whole entry, looked up): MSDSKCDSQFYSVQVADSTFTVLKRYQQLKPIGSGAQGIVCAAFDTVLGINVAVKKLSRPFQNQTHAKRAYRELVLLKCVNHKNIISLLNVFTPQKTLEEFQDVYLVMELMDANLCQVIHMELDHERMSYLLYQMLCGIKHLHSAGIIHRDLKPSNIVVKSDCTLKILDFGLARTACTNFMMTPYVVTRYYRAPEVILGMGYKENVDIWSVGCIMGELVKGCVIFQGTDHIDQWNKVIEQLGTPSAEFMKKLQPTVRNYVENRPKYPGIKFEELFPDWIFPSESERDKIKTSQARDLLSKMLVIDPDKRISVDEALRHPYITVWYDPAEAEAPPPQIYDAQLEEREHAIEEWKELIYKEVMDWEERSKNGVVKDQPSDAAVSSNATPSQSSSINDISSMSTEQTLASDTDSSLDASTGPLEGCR
Sequence of STK17A (human) (Q9UEE5 whole entry, looked up): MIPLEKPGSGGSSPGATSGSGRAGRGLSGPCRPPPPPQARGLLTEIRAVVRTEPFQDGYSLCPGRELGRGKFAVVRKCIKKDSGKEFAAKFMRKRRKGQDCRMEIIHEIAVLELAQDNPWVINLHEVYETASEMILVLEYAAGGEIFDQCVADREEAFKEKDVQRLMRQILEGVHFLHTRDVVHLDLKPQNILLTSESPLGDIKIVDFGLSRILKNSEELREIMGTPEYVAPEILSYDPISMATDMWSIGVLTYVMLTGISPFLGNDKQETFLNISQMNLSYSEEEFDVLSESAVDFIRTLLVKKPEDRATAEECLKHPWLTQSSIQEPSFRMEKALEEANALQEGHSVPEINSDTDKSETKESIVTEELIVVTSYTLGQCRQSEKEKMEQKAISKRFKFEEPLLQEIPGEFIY
Sequence of LIMK1 (human) (P53667 whole entry, looked up): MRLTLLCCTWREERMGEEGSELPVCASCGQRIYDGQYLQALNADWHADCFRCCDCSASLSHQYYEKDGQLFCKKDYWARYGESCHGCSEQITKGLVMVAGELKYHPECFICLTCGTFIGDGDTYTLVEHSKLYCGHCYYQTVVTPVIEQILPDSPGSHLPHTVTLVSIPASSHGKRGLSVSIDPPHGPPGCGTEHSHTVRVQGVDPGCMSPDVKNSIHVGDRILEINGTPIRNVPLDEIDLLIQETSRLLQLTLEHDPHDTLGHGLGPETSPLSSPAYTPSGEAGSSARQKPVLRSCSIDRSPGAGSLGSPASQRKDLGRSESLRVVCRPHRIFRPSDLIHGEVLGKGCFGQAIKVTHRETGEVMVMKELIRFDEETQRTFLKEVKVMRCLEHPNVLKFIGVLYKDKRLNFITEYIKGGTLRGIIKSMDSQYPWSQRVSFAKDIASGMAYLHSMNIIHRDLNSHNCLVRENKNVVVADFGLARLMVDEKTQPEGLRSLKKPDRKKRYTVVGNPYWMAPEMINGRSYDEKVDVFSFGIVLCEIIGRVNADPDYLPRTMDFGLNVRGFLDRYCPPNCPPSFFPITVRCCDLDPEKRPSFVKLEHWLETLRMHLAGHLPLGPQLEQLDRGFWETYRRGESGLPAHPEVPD
Sequence of JAK3 JH1 catalytic (human) (P52333 whole entry, looked up): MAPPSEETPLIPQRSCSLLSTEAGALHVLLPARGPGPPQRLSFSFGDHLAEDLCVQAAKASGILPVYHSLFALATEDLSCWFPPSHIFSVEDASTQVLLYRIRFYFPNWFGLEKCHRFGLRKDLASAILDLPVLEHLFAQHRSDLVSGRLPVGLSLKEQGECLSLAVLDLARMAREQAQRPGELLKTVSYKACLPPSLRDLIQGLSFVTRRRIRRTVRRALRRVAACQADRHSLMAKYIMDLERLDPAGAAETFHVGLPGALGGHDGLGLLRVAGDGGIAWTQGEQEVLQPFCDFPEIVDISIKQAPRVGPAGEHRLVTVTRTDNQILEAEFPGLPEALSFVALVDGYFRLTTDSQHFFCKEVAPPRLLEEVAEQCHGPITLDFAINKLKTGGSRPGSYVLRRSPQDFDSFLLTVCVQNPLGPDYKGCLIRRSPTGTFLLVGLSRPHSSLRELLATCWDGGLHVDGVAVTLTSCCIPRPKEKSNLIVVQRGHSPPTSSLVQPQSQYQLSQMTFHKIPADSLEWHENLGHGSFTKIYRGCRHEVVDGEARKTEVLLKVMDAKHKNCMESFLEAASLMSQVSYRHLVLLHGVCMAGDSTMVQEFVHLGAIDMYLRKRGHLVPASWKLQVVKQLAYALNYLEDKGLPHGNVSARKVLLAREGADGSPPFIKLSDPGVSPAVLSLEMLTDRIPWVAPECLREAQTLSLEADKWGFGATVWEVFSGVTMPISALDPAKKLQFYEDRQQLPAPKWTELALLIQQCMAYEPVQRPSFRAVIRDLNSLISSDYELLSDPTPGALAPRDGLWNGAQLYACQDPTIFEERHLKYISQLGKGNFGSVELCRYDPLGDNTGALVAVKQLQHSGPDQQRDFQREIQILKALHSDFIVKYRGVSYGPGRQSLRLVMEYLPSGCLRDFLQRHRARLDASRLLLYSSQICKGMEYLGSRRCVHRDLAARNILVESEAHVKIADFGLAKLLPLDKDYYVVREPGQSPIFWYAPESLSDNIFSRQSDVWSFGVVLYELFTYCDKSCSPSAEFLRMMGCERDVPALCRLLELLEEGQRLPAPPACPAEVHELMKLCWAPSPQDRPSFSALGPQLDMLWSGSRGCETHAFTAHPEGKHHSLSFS
Sequence of MAK (human) (P20794 whole entry, looked up): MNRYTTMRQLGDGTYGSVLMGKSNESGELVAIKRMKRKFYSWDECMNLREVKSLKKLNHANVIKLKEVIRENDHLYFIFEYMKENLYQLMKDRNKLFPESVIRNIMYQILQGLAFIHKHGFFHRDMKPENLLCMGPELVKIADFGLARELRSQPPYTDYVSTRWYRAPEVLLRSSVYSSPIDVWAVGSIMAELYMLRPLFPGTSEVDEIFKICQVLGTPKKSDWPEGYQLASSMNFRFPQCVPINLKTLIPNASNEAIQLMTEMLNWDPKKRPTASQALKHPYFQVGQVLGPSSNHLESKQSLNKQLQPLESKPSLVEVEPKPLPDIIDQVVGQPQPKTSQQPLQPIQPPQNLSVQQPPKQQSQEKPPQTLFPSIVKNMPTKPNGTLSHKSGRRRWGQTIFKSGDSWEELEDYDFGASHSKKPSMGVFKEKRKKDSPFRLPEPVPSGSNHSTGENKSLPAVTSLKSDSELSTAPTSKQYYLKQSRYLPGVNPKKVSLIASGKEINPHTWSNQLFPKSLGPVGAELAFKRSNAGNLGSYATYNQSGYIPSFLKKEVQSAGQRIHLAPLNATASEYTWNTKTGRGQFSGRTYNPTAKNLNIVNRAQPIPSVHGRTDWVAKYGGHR
Sequence of MKNK2 (human) (Q9HBH9 whole entry, looked up): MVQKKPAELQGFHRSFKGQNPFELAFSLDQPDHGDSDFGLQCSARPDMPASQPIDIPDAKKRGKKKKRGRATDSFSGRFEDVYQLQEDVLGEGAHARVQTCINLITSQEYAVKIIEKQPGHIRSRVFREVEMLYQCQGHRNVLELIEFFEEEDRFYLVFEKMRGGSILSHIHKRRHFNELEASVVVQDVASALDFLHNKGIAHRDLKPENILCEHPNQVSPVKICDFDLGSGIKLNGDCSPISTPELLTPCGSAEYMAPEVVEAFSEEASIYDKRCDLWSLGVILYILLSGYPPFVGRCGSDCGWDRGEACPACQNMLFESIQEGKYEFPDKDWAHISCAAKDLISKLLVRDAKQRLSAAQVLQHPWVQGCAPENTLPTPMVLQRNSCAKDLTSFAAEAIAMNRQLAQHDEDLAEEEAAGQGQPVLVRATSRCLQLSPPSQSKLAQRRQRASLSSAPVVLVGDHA

Q: Which kinase still bound, per cent of control ([1]; compound 1.0 µM) does the source give for CN(C)C/C=C/C(=O)Nc1cccc(C(=O)Nc2ccc(Nc3nccc(-c4cccnc4)n3)cc2)c1 here?
A: 42%

Q: And the kinase still bound, per cent of control ([2]; compound 1.0 µM)?
A: 64%

Q: And the kinase still bound, per cent of control ([3]; compound 1.0 µM)?
A: 100%

Q: And the kinase still bound, per cent of control ([4]; compound 1.0 µM)?
A: 74%

Q: What about the kinase still bound, per cent of control ([5]; compound 1.0 µM) of the same compound?
A: 58%

Q: And the kinase still bound, per cent of control ([6]; compound 1.0 µM)?
A: 100%

Q: And the kinase still bound, per cent of control ([7]; compound 1.0 µM)?
A: 53%

Q: And the kinase still bound, per cent of control ([8]; compound 1.0 µM)?
A: 90%

Q: And the kinase still bound, per cent of control ([9]; compound 1.0 µM)?
A: 91%

Q: And the kinase still bound, per cent of control ([10]; compound 1.0 µM)?
A: 92%

Q: What about the kinase still bound, per cent of control ([11]; compound 1.0 µM) of the same compound?
A: 9.2%

Q: And the kinase still bound, per cent of control ([12]; compound 1.0 µM)?
A: 100%

Q: And the kinase still bound, per cent of control ([13]; compound 1.0 µM)?
A: 27%

Q: And the kinase still bound, per cent of control ([14]; compound 1.0 µM)?
A: 78%

Q: What about the kinase still bound, per cent of control ([15]; compound 1.0 µM) of the same compound?
A: 16%

Q: What about the kinase still bound, per cent of control ([16]; compound 1.0 µM) of the same compound?
A: 100%

Q: And the kinase still bound, per cent of control ([17]; compound 1.0 µM)?
A: 71%

Q: And the kinase still bound, per cent of control ([18]; compound 1.0 µM)?
A: 51%

Q: And the kinase still bound, per cent of control ([19]; compound 1.0 µM)?
A: 5.6%

Q: And the kinase still bound, per cent of control ([20]; compound 1.0 µM)?
A: 100%

Q: What about the kinase still bound, per cent of control ([21]; compound 1.0 µM) of the same compound?
A: 38%

Q: What about the kinase still bound, per cent of control ([22]; compound 1.0 µM) of the same compound?
A: 0%

Q: What about the kinase still bound, per cent of control ([23]; compound 1.0 µM) of the same compound?
A: 77%

Q: What about the kinase still bound, per cent of control ([24]; compound 1.0 µM) of the same compound?
A: 99%

Q: What about the kinase still bound, per cent of control ([25]; compound 1.0 µM) of the same compound?
A: 13%

Q: What about the kinase still bound, per cent of control ([26]; compound 1.0 µM) of the same compound?
A: 46%

Q: And the kinase still bound, per cent of control ([27]; compound 1.0 µM)?
A: 81%

Q: And the kinase still bound, per cent of control ([28]; compound 1.0 µM)?
A: 94%

Q: And the kinase still bound, per cent of control ([29]; compound 1.0 µM)?
A: 87%

Q: And the kinase still bound, per cent of control ([30]; compound 1.0 µM)?
A: 71%

Q: And the kinase still bound, per cent of control ([31]; compound 1.0 µM)?
A: 100%

Q: What about the kinase still bound, per cent of control ([32]; compound 1.0 µM) of the same compound?
A: 100%

Q: And the kinase still bound, per cent of control ([33]; compound 1.0 µM)?
A: 77%

Q: And the kinase still bound, per cent of control ([34]; compound 1.0 µM)?
A: 22%

Q: And the kinase still bound, per cent of control ([35]; compound 1.0 µM)?
A: 100%

Q: And the kinase still bound, per cent of control ([36]; compound 1.0 µM)?
A: 100%

Q: And the kinase still bound, per cent of control ([37]; compound 1.0 µM)?
A: 87%

Q: What about the kinase still bound, per cent of control ([38]; compound 1.0 µM) of the same compound?
A: 88%

Q: And the pKd [39]?
A: 7.00

Q: And the kinase still bound, per cent of control ([39]; compound 1.0 µM)?
A: 1.3%

Q: What about the kinase still bound, per cent of control ([40]; compound 1.0 µM) of the same compound?
A: 86%

Q: And the kinase still bound, per cent of control ([41]; compound 1.0 µM)?
A: 88%

Q: And the kinase still bound, per cent of control ([42]; compound 1.0 µM)?
A: 77%

Q: And the pKd [43]?
A: 8.32

Q: And the kinase still bound, per cent of control ([43]; compound 1.0 µM)?
A: 0.1%

Q: Cc1ccc(NC(=O)c2ccc(NC(=O)/C=C/CN(C)C)cc2)cc1Nc1nccc(-c2cccnc2)n1 was tested. Which kinase still bound, per cent of control ([1]; compound 10.0 µM) did it give?
A: 47%

Q: What about the kinase still bound, per cent of control ([2]; compound 10.0 µM) of the same compound?
A: 86%

Q: And the kinase still bound, per cent of control ([3]; compound 10.0 µM)?
A: 93%

Q: And the kinase still bound, per cent of control ([4]; compound 10.0 µM)?
A: 100%

Q: What about the kinase still bound, per cent of control ([5]; compound 10.0 µM) of the same compound?
A: 32%

Q: And the kinase still bound, per cent of control ([6]; compound 10.0 µM)?
A: 94%

Q: What about the kinase still bound, per cent of control ([7]; compound 10.0 µM) of the same compound?
A: 0.9%

Q: And the kinase still bound, per cent of control ([8]; compound 10.0 µM)?
A: 100%

Q: What about the kinase still bound, per cent of control ([9]; compound 10.0 µM) of the same compound?
A: 57%

Q: What about the kinase still bound, per cent of control ([10]; compound 10.0 µM) of the same compound?
A: 50%

Q: And the kinase still bound, per cent of control ([11]; compound 10.0 µM)?
A: 54%

Q: And the kinase still bound, per cent of control ([12]; compound 10.0 µM)?
A: 81%

Q: What about the kinase still bound, per cent of control ([13]; compound 10.0 µM) of the same compound?
A: 100%

Q: And the kinase still bound, per cent of control ([14]; compound 10.0 µM)?
A: 17%

Q: And the kinase still bound, per cent of control ([15]; compound 10.0 µM)?
A: 38%

Q: And the kinase still bound, per cent of control ([16]; compound 10.0 µM)?
A: 54%

Q: What about the kinase still bound, per cent of control ([17]; compound 10.0 µM) of the same compound?
A: 85%

Q: What about the kinase still bound, per cent of control ([18]; compound 10.0 µM) of the same compound?
A: 48%

Q: And the kinase still bound, per cent of control ([19]; compound 10.0 µM)?
A: 100%

Q: What about the kinase still bound, per cent of control ([20]; compound 10.0 µM) of the same compound?
A: 100%

Q: What about the kinase still bound, per cent of control ([21]; compound 10.0 µM) of the same compound?
A: 78%

Q: And the pKd [22]?
A: 6.80

Q: What about the kinase still bound, per cent of control ([22]; compound 10.0 µM) of the same compound?
A: 1.1%

Q: What about the kinase still bound, per cent of control ([23]; compound 10.0 µM) of the same compound?
A: 89%

Q: What about the kinase still bound, per cent of control ([24]; compound 10.0 µM) of the same compound?
A: 45%

Q: And the kinase still bound, per cent of control ([25]; compound 10.0 µM)?
A: 4.2%

Q: What about the kinase still bound, per cent of control ([26]; compound 10.0 µM) of the same compound?
A: 78%

Q: What about the kinase still bound, per cent of control ([27]; compound 10.0 µM) of the same compound?
A: 100%

Q: What about the kinase still bound, per cent of control ([28]; compound 10.0 µM) of the same compound?
A: 67%

Q: And the kinase still bound, per cent of control ([29]; compound 10.0 µM)?
A: 80%

Q: And the kinase still bound, per cent of control ([30]; compound 10.0 µM)?
A: 40%

Q: What about the kinase still bound, per cent of control ([31]; compound 10.0 µM) of the same compound?
A: 100%

Q: What about the kinase still bound, per cent of control ([32]; compound 10.0 µM) of the same compound?
A: 70%

Q: And the kinase still bound, per cent of control ([33]; compound 10.0 µM)?
A: 85%

Q: What about the kinase still bound, per cent of control ([34]; compound 10.0 µM) of the same compound?
A: 59%

Q: And the kinase still bound, per cent of control ([35]; compound 10.0 µM)?
A: 52%

Q: And the kinase still bound, per cent of control ([36]; compound 10.0 µM)?
A: 85%

Q: And the kinase still bound, per cent of control ([37]; compound 10.0 µM)?
A: 100%

Q: And the kinase still bound, per cent of control ([38]; compound 10.0 µM)?
A: 78%

Q: And the kinase still bound, per cent of control ([39]; compound 10.0 µM)?
A: 1.6%

Q: And the kinase still bound, per cent of control ([40]; compound 10.0 µM)?
A: 86%

Q: And the kinase still bound, per cent of control ([41]; compound 10.0 µM)?
A: 100%

Q: What about the kinase still bound, per cent of control ([42]; compound 10.0 µM) of the same compound?
A: 100%

Q: And the kinase still bound, per cent of control ([43]; compound 10.0 µM)?
A: 28%
